Experimental data published in ChEMBL document CHEMBL1909046, “DrugMatrix in vitro pharmacology data”.

What was measured:
[1] = target: Beta-3 adrenergic receptor (Homo sapiens, UniProt P13945); assay: DRUGMATRIX: Adrenergic beta3 radioligand binding (ligand: [125I] Cyanopindolol); format: cell membranes, HEK293, Membrane; details: hek293; Not Active = under 50% inhibition at 10 µM
[2] = target: Protein phosphatase 3 catalytic subunit alpha (Homo sapiens, UniProt Q08209); parameters: species or system Escherichia coli;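 also: inhibition of calcineurin (PP2B) enzyme activity, measured with DiFMUP as the substrate; in other assays of this panel Not Active means under 50% inhibition at 10 µM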
[3] = DRUGMATRIX: Purinergic P2X radioligand binding (ligand: [3H] alpha, beta-Methylene-ATP); format: cell membranes, Oryctolagus cuniculus, New Zealand albino, Urinary bladder, Membrane; details: Not Active = under 50% inhibition at 10 µM
[4] = target: T1, Amine oxidase [flavin-containing] A (Homo sapiens, UniProt P21397); assay: DRUGMATRIX: Monoamine Oxidase MAO-A enzyme inhibition (substrate: Kynuramine); parameters: species or system BTI-TN-5B1-4; details: bti-tn-5b1-4; Not Active = under 50% inhibition at 10 µM
T1 sequence (P21397 whole entry): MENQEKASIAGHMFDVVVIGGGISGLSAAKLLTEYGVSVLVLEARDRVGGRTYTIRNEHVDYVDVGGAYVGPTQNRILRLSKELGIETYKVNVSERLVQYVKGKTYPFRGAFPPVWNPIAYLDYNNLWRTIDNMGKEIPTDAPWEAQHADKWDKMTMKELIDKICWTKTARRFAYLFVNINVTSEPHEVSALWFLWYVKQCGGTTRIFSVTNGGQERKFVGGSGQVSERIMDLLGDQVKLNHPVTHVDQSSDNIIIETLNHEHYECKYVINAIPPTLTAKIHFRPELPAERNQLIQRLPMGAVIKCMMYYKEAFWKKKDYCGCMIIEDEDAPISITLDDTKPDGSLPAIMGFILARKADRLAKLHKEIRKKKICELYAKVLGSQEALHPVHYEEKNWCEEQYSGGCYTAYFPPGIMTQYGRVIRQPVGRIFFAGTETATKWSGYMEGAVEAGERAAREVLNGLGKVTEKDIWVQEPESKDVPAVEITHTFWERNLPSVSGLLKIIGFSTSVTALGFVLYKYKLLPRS

[5] = target: 5-hydroxytryptamine receptor 6 (Homo sapiens, UniProt P50406); format: cell membranes, HeLa, Membrane; details: hela; also: in other assays of this panel Not Active means under 50% inhibition at 10 µM
5-hydroxytryptamine receptor 6, sequence (P50406 whole entry): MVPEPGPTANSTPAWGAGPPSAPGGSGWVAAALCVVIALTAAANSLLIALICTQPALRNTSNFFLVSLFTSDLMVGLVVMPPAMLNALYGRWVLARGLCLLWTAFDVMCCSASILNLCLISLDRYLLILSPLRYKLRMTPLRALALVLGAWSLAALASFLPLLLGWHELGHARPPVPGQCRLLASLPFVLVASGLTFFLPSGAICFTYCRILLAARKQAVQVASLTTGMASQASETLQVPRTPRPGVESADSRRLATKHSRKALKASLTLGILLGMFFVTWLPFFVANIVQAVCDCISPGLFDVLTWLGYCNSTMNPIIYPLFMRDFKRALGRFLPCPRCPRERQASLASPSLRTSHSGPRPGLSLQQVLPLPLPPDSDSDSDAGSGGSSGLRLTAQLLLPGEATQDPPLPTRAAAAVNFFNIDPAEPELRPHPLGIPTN

Melanocortin receptor 5 = Melanocortin receptor 5 (Homo sapiens, UniProt P33032); format: cell membranes, HEK293, Membrane; details: hek293; also: in other assays of this panel Not Active means under 50% inhibition at 10 µM
Melanocortin receptor 5, sequence (P33032 whole entry): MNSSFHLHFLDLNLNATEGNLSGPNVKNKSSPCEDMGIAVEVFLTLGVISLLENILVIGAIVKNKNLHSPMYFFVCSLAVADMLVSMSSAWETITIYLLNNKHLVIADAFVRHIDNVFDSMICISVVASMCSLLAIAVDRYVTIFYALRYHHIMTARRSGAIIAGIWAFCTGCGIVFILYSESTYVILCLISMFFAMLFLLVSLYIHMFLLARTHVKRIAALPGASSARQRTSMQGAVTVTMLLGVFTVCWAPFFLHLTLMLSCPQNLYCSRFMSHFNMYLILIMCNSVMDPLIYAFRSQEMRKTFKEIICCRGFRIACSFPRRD

[6] = target: Epidermal growth factor receptor (Homo sapiens, UniProt P00533); assay: DRUGMATRIX: Protein Tyrosine Kinase, EGF Receptor enzyme inhibition (substrate: Poly(Glu:Tyr)); format: cell-based, Insect cells; details: insect cells; Not Active = under 50% inhibition at 10 µM
Epidermal growth factor receptor, sequence (P00533 whole entry): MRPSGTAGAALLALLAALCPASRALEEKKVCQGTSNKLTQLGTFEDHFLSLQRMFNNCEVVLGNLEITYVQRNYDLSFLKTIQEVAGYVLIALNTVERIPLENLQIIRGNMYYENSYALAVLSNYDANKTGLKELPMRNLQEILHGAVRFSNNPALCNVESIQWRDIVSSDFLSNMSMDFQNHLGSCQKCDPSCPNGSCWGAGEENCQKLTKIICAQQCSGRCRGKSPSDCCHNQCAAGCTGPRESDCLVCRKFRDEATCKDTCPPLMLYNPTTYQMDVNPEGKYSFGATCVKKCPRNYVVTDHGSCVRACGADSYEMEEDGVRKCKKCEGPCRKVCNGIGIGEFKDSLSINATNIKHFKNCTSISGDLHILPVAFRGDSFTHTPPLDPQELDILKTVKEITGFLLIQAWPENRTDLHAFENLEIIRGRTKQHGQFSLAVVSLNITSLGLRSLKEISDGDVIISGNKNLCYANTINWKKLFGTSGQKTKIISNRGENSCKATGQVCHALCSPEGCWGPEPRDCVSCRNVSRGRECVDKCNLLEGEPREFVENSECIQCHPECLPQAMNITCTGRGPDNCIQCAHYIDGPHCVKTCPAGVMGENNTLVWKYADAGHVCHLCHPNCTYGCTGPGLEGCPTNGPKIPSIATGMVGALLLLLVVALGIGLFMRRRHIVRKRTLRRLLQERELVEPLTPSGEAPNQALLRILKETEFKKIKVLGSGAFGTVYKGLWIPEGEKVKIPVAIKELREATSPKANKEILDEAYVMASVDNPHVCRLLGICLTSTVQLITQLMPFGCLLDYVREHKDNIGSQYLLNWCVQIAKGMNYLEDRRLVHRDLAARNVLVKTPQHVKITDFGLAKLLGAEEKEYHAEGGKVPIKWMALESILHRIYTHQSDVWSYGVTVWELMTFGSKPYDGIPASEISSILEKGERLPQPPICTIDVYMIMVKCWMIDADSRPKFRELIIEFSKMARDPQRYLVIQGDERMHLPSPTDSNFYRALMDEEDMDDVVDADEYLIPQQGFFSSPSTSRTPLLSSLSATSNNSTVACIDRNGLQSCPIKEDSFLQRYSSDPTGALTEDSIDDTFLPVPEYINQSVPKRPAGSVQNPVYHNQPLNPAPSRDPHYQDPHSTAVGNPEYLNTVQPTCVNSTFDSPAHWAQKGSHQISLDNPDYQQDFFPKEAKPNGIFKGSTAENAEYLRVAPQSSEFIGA

[7] = target: Beta-2 adrenergic receptor (Homo sapiens, UniProt P07550); assay: DRUGMATRIX: Adrenergic beta2 radioligand binding (ligand: [3H] CGP-12177); format: cell membranes, Membrane; details: cho; Not Active = under 50% inhibition at 10 µM
Beta-2 adrenergic receptor, sequence (P07550 whole entry): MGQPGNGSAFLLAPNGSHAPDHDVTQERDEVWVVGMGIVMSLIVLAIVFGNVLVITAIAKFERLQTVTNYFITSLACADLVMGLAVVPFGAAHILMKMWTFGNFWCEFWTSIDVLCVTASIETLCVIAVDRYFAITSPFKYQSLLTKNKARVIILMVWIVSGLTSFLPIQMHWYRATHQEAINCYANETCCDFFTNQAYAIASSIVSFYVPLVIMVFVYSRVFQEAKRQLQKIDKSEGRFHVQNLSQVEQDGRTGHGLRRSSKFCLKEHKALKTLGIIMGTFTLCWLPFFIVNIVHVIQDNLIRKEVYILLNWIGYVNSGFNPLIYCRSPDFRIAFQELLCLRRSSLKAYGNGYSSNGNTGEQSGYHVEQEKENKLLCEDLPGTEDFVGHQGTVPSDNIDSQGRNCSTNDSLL

Cathepsin G = target: T2, Cathepsin G (Homo sapiens, UniProt P08311); format: tissue-based; details: neutrophil;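 also: inhibition of Cathepsin G enzyme activity, tested on an AMC-conjugated peptide substrate; in other assays of this panel Not Active means under 50% inhibition at 10 µM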
T2 sequence (P08311 whole entry): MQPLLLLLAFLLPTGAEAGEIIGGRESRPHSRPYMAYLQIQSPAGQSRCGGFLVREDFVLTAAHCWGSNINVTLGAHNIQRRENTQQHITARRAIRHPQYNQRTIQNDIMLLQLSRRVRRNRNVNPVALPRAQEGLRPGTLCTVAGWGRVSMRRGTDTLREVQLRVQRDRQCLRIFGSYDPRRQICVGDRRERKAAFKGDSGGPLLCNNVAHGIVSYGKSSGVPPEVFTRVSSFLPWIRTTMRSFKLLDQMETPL

[8] = DRUGMATRIX: Platelet-Derived Growth Factor (PDGF) radioligand binding (ligand: [125I] PDGF); format: cell-based; details: nih3t3; Not Active = under 50% inhibition at 10 µM
[9] = target: T3, C-C chemokine receptor type 4 (Homo sapiens, UniProt P51679); format: cell membranes, Membrane; details: chem-1; also: in other assays of this panel Not Active means under 50% inhibition at 10 µM
T3 sequence (P51679 whole entry): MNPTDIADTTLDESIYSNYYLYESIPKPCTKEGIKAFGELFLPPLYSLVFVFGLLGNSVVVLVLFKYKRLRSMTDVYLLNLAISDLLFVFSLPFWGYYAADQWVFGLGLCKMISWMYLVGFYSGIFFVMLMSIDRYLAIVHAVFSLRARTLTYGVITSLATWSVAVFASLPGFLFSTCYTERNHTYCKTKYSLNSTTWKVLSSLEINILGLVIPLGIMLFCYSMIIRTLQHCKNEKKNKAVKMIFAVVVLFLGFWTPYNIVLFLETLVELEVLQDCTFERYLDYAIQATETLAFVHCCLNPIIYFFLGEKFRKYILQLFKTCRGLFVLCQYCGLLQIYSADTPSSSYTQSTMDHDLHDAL

[10] = target: cGMP-specific 3',5'-cyclic phosphodiesterase (Homo sapiens, UniProt O76074); assay: DRUGMATRIX: Phosphodiesterase PDE5 enzyme inhibition (substrate: [3H]cGMP + cGMP); format: tissue-based, Platelet; details: platelet; Not Active = under 50% inhibition at 10 µM
[11] = target: Mitogen-activated protein kinase 14 (Homo sapiens, UniProt Q16539); parameters: species or system Escherichia coli
Mitogen-activated protein kinase 14, sequence (Q16539 whole entry): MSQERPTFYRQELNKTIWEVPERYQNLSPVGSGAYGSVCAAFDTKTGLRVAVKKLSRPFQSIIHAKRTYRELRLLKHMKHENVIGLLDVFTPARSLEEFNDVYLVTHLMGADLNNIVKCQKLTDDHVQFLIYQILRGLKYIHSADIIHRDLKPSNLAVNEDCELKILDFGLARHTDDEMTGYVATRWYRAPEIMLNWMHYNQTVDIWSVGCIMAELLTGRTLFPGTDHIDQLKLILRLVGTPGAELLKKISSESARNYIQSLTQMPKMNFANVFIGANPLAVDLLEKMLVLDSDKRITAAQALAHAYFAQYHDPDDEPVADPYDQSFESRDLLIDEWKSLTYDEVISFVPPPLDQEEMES

Beta-3 adrenergic receptor, sequence (P13945 whole entry): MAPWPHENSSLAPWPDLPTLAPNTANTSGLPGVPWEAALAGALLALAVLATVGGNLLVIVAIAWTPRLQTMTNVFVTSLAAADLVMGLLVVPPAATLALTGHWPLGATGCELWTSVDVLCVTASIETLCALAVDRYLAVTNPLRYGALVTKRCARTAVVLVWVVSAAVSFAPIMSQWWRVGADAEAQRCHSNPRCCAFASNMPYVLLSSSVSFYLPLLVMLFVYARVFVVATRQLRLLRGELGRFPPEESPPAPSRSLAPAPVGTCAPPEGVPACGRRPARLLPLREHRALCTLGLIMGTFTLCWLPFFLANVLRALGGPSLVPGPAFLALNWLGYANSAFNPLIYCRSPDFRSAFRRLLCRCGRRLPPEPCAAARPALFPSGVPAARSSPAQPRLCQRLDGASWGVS

CC1CN(c2cc3c(cc2F)c(=O)c(C(=O)O)cn3-c2ccc(F)cc2F)CCN1 (stereo not given) [TEMAFLOXACIN]
Not Active: IC50 [1] | IC50 [2] | IC50 [3] | Ki [3] | IC50 [4] | IC50 [5] | IC50 (Melanocortin receptor 5) | IC50 [6] | IC50 [7] | IC50 (Cathepsin G) | IC50 [8] | Ki [8] | IC50 [9] | IC50 [10] | IC50 [11]

CN(C)[C@@H]1C(O)=C(C(N)=O)C(=O)[C@@]2(O)C(O)=C3C(=O)c4c(O)cccc4[C@@](C)(O)[C@H]3C[C@@H]12 [TETRACYCLINE]
Not Active: IC50 [1] | IC50 [2] | IC50 [3] | Ki [3] | IC50 [4] | IC50 [5] | IC50 (Melanocortin receptor 5) | IC50 [6] | IC50 [7] | IC50 (Cathepsin G) | IC50 [8] | Ki [8] | IC50 [9] | IC50 [10] | IC50 [11]

c1ccc2[nH]c(-c3cscn3)nc2c1 [THIABENDAZOLE]
Not Active: IC50 [1] | IC50 [2] | IC50 [3] | Ki [3] | IC50 [4] | IC50 [5] | IC50 (Melanocortin receptor 5) | IC50 [6] | IC50 [7] | IC50 (Cathepsin G) | IC50 [8] | Ki [8] | IC50 [9] | IC50 [10] | IC50 [11]

Cc1ccc(C(=O)C(C)CN2CCCCC2)cc1 (stereo not given) [TOLPERISONE]
Not Active: IC50 [1] | IC50 [2] | IC50 [3] | Ki [3] | IC50 [4] | IC50 [5] | IC50 (Melanocortin receptor 5) | IC50 [6] | IC50 [7] | IC50 (Cathepsin G) | IC50 [8] | Ki [8] | IC50 [9] | IC50 [10] | IC50 [11]

NC(CO)(CO)CO [TROMETHAMINE]
Not Active: IC50 [1] | IC50 [2] | IC50 [3] | Ki [3] | IC50 [4] | IC50 [5] | IC50 (Melanocortin receptor 5) | IC50 [6] | IC50 [7] | IC50 (Cathepsin G) | IC50 [8] | Ki [8] | IC50 [9] | IC50 [10] | IC50 [11]

CN1[C@@H]2CC[C@H]1C[C@@H](OC(=O)c1c[nH]c3ccccc13)C2 [TROPISETRON]
Not Active: IC50 [1] | IC50 [2] | IC50 [3] | Ki [3] | IC50 [4] | IC50 [5] | IC50 (Melanocortin receptor 5) | IC50 [6] | IC50 [7] | IC50 (Cathepsin G) | IC50 [8] | Ki [8] | IC50 [9] | IC50 [10] | IC50 [11]

COc1cc(C(=O)NC2CCCNC2)cc(OC)c1OC (stereo not given) [TROXIPIDE]
Not Active: IC50 [1] | IC50 [2] | IC50 [3] | Ki [3] | IC50 [4] | IC50 [5] | IC50 (Melanocortin receptor 5) | IC50 [6] | IC50 [7] | IC50 (Cathepsin G) | IC50 [8] | Ki [8] | IC50 [9] | IC50 [10] | IC50 [11]

CC(C)[C@H](N)C(=O)OCCOCn1cnc2c(=O)nc(N)[nH]c21 [VALACYCLOVIR]
Not Active: IC50 [1] | IC50 [2] | IC50 [3] | Ki [3] | IC50 [4] | IC50 [5] | IC50 (Melanocortin receptor 5) | IC50 [6] | IC50 [7] | IC50 (Cathepsin G) | IC50 [8] | Ki [8] | IC50 [9] | IC50 [10] | IC50 [11]
